# Patent US10508077B2 (FORMA Therapeutics, Inc., priority 2015, dated 2019)
# Biological target: T1, Full length human recombinant HDAC8 protein (Homo sapiens, UniProt Q9BY41)
# T1 construct: Full length human recombinant HDAC8 protein was expressed in baculoviral system; made in house
# T1 sequence (Q9BY41 1-377): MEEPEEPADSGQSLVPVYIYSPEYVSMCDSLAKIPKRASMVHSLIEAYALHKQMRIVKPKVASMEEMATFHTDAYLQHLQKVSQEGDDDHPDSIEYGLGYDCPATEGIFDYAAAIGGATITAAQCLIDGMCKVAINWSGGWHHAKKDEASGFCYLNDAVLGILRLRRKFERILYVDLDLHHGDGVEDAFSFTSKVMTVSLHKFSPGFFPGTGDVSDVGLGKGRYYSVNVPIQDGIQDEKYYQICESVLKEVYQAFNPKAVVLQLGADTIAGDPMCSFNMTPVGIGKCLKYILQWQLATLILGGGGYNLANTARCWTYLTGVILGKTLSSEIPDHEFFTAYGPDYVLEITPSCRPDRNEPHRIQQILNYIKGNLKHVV
# Experiment: In vitro histone deacetylase assay: enzymatic HDAC8 assay, electrophoretic mobility shift
# Assay type: biochemical
# Details: substrate RHKK(Ac)-NH2, 1 nM enzyme, compounds listed under IC50 range headings
# How it was run: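 Readout was microfluidic mobility-shift separation of deacetylated product from fluorescent RHKK(Ac)-NH2 substrate (2 µM), after reaction with 1 nM recombinant full-length human HDAC8 at 25 °C, pH 7.5, stopped with SDS. Twelve 3-fold-spaced concentrations tested; product/sum ratios normalized to controls and fitted with a 4-parameter model for IC50.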
row,Structure (SMILES),IC50 [nM]
1,"O=C(/C=C/c1ccccc1Nc1nc2ccccc2[nH]1)NO [Example I-1, (E)-3-(2-((1H-benzo[d]imidazol-2-yl)amino)phenyl)-N-hydroxyacrylamide]",1000 to 10000
2,"O=C(/C=C/c1ccccc1C(=O)N1CCN(c2ccccc2)CC1)NO [II-19, (E)-N-hydroxy-3-(2-(4-phenylpiperazine-1-carbonyl)phenyl)acrylamide]",< 1000
3,"CCCCC(=O)NC1CCN(c2ccccc2/C=C/C(=O)NO)CC1 [Example I-125, (E)-N-(1-(2-(3-(hydroxyamino)-3-oxoprop-1-en-1-yl)phenyl)piperidin-4-yl)pentanamide]",< 1000
4,"CC(=O)NC1CCN(C(=O)c2ccccc2/C=C/C(=O)NO)CC1 [II-8, (E)-3-(2-(4-acetamidopiperidine-1-carbonyl)phenyl)-N-hydroxyacrylamide]",1000 to 10000
5,O=C(/C=C/c1ccccc1N1CCC(NC(=O)c2cccnc2)CC1)NO [Example I-132],< 1000
6,"O=C(/C=C/c1ccccc1NS(=O)(=O)c1cccc(C(F)(F)F)c1)NO [Example I-7, (E)-N-hydroxy-3-(2-(3-(trifluoromethyl)phenylsulfonamido)phenyl)acrylamide]",1000 to 10000
7,"O=C(/C=C/c1ccccc1NCC1CCOC1)NO (stereo not drawn) [Example I-106, (E)-N-hydroxy-3-(2-(((tetrahydrofuran-3-yl)methyl)amino)phenyl)acrylamide]",< 1000
8,"O=C(/C=C/c1ccccc1N1CCC(NC(=O)c2cnn3c2OCCC3)CC1)NO [Example I-145, (E)-N-(1-(2-(3-(hydroxyamino)-3-oxoprop-1-en-1-yl)phenyl)piperidin-4-yl)-6,7-dihydro-5H-pyrazolo[5,1-b][1,3]oxazine-3-carboxamide]",< 1000
9,"CCSCC(=O)N1CCN(c2ccccc2/C=C/C(=O)NO)CC1 [Example I-197, (E)-3-(2-(4-(2-(ethylthio)acetyl)pipera-zin-1-yl)phenyl)-N-hydroxyacrylamide]",< 1000
10,"CN(C)CC1(CN2CCN(c3ccccc3/C=C/C(=O)NO)CC2)CCCC1 [Example I-186, (E)-3-(2-(4-((1-((dimethylamino)methyl)cyclopentyl)methyl)piperazin-1-yl)phenyl)-N-hydroxyacrylamide]",< 1000
11,"O=C(/C=C/c1ccccc1N1CCC(NCc2nc3ccccc3s2)CC1)NO [Example I-192, (E)-3-(2-(4-((benzo[d]thiazol-2-ylmethyl)amino)piperidin-1-yl)phenyl)-N-hydroxyacrylamide]",< 1000
12,"O=C(/C=C/c1ccccc1N1CCN(C(=O)CC23CCCN2CCC3)CC1)NO [Example I-24, (E)-N-hydroxy-3-(2-(4-(2-(tetrahydro-1H-pyrrolizin-7a(5H)-yl)acetyl)piperazin-1-yl)phenyl)acrylamide]",1000 to 10000
13,"COc1ccc(CN2CCN(c3ccccc3/C=C/C(=O)NO)CC2)cc1 [Example I-172, (E)-N-hydroxy-3-(2-(4-(4-methoxybenzyl)piperazin-1-yl)phenyl)acrylamide]",< 1000
14,"O=C(/C=C/c1ccccc1NCc1ccnc2ccccc12)NO [Example I-88, (E)-N-hydroxy-3-(2-((quinolin-4-ylmethyl)amino)phenyl)acrylamide]",< 1000
15,"CN(CC(=O)NC1CCN(c2ccccc2/C=C/C(=O)NO)CC1)S(C)(=O)=O [Example I-144, (E)-N-hydroxy-3-(2-(4-(2-(N-methylmethylsulfonamido)acetamido)piperidin-1-yl)phenyl)acrylamide]",< 1000
16,"O=C(/C=C/c1ccccc1N1CCN(Cc2ccccn2)CC1)NO [Example I-168, (E)-N-hydroxy-3-(2-(4-(pyridin-2-ylmethyl)piperazin-1-yl)phenyl)acrylamide]",< 1000
17,"O=C(/C=C/c1ccccc1N1Cc2cc(Cl)c(Cl)cc2C1)NO [Example I-290, (E)-3-(2-(5,6-dichloroisoindolin-2-yl)phenyl)-N-hydroxyacrylamide]",< 1000
18,"Cn1cc2c(n1)CCN(C(=O)c1ccccc1/C=C/C(=O)NO)C2 [II-25, (E)-N-hydroxy-3-(2-(2-methyl-4,5,6,7-tetrahydro-2H-pyrazolo[4,3-c]pyridine-5-carbonyl)phenyl)acrylamide]",< 1000
19,"O=C(/C=C/c1ccccc1N1CCN(CCCC(F)(F)F)CC1)NO [Example I-184, (E)-N-hydroxy-3-(2-(4-(4,4,4-trifluorobutyl)piperazin-1-yl)phenyl)acrylamide]",< 1000
20,"COc1ccc(CC(=O)N2CCN(c3ccccc3/C=C/C(=O)NO)CC2)cc1 [Example I-195, (E)-N-hydroxy-3-(2-(4-(2-(4-methoxyphenyl)acetyl)pi-perazin-1-yl)phenyl)acrylamide]",< 1000

row,Structure (SMILES),IC50 [nM]
1,"CCCCc1ccc(NC(=O)c2ccccc2/C=C/C(=O)NO)cc1 [II-14, (E)-N-(4-butylphenyl)-2-(3-(hydroxyamino)-3-oxoprop-1-en-1-yl)benzamide]",< 1000
2,"Cc1nc(C(C)(C)C)sc1C(=O)Nc1ccccc1/C=C/C(=O)NO [Example I-283, (E)-2-(tert-butyl)-N-(2-(3-(hydroxyamino)-3-oxoprop-1-en-1-yl)phenyl)-4-methylthiazole-5-carboxamide]",< 1000
3,"O=C(/C=C/c1ccccc1N1CCN(C(=O)C2CCCO2)CC1)NO (stereo not drawn) [Example I-19, (E)-N-hydroxy-3-(2-(4-(tetrahydrofuran-2-carbonyl)piperazin-1-yl)phenyl)acrylamide]",1000 to 10000
4,"NC(=O)CCc1cccc(CNc2ccccc2/C=C/C(=O)NO)c1 [Example I-53, (E)-3-(2-((3-(3-amino-3-oxopropyl)benzyl)amino)phenyl)-N-hydroxyacrylamide]",< 1000
5,"Cn1ccnc1CN1CCN(c2ccccc2/C=C/C(=O)NO)CC1 [Example I-181, (E)-N-hydroxy-3-(2-(4-((1-methyl-1H-imidazol-2-yl)methyl)piperazin-1-yl)phenyl)acrylamide]",< 1000
6,"Cc1ccccc1S(=O)(=O)N1CCN(c2ccccc2/C=C/C(=O)NO)CC1 [Example I-247, (E)-N-hydroxy-3-(2-(4-(o-tolylsulfonyl)piperazin-1-yl)phenyl)acrylamide]",< 1000
7,"O=C(/C=C/c1ccccc1N1CCN(Cc2ccccc2C(F)(F)F)CC1)NO [Example I-174, (E)-N-hydroxy-3-(2-(4-(2-(trifluoromethyl)benzyl)piperazin-1-yl)phenyl)acrylamide]",< 1000
8,"COc1cc(-c2ccccc2)sc1C(=O)Nc1ccccc1/C=C/C(=O)NO [Example I-284, (E)-N-(2-(3-(hydroxyamino)-3-oxoprop-1-en-1-yl)phenyl)-3-methoxy-5-phenylthiophene-2-carboxamide]",< 1000
9,"Cc1nc(C(C)C(=O)N2CCN(c3ccccc3/C=C/C(=O)NO)CC2)cs1 (stereo not drawn) [Example I-289, (E)-N-hydroxy-3-(2-(4-(2-(2-methylthiazol-4-yl)propanoyl)piperazin-1-yl)phenyl)acrylamide]",< 1000
10,"O=C(/C=C/c1ccccc1N1CCN(C(=O)C2CC(F)(F)C2)CC1)NO [Example I-205, (E)-3-(2-(4-(3,3-difluorocyclobutane-1-carbonyl)piperazin-1-yl)phenyl)-N-hydroxyacrylamide]",< 1000
11,"Cn1cnc(S(=O)(=O)NC2CCN(c3ccccc3/C=C/C(=O)NO)CC2)c1 [Example I-237, (E)-N-hydroxy-3-(2-(4-((1-methyl-1H-imidazole)-4-sulfonamido)piperidin-1-yl)phenyl)acrylamide]",< 1000
12,"O=C(/C=C/c1ccccc1S(=O)(=O)C1CCN(Cc2ccccc2)CC1)NO [II-30, (E)-3-(2-((1-benzylpiperidin-4-yl)sulfonyl)phenyl)-N-hydroxyacrylamide]",< 1000
13,"O=C(/C=C/c1ccccc1NC(=O)c1ccccc1)NO [Example I-506, (E)-N-(2-(3-(hydroxyamino)-3-oxoprop-1-enyl)phenyl)benzamide 2,2,2-trifluoroacetate]",< 1000
14,"O=C(/C=C/c1ccccc1N1CCC(NC(=O)CC2CCS(=O)(=O)CC2)CC1)NO [Example I-151, (E)-3-(2-(4-(2-(1,1-dioxidotetrahydro-2H-thiopyran-4-yl)acetamido)piperidin-1-yl)phenyl)-N-hydroxyacrylamide]",< 1000
15,"O=C(/C=C/c1ccccc1N1CCN(C(=O)c2ccc3c(c2)OCO3)CC1)NO [Example I-207, (E)-3-(2-(4-(benzo[d][1,3]dioxole-5-carbonyl)piperazin-1-yl)phenyl)-N-hydroxyacrylamide]",< 1000
16,"O=C(/C=C/c1ccccc1N1CCN(C(=O)Cc2cccs2)CC1)NO [Example I-196, (E)-N-hydroxy-3-(2-(4-(2-(thiophen-2-yl)acetyl)piperazin-1-yl)phenyl)acrylamide]",< 1000
17,"O=C(/C=C/c1ccccc1N1CCC(NCc2nccs2)CC1)NO [Example I-190, (E)-N-hydroxy-3-(2-(4-((thiazol-2-ylmethyl)amino)piperidin-1-yl)phenyl)acrylamide]",< 1000
18,"Cc1c(S(=O)(=O)N2CCN(c3ccccc3/C=C/C(=O)NO)CC2)sc2ccc(Cl)cc12 [Example I-33, (E)-3-(2-(4-((5-chloro-3-methylbenzo[b]thiophen-2-yl)sulfonyl)piperazin-1-yl)phenyl)-N-hydroxyacrylamide]",1000 to 10000
19,"O=C(/C=C/c1ccccc1C(=O)NC1CCCCC1)NO [II-13, (E)-N-cyclohexyl-2-(3-(hydroxyamino)-3-oxoprop-1-en-1-yl)benzamide]",< 1000
